Laboratory results published in US11401270B2, “Alcoxyamino derivatives for treating pain and pain related conditions” (ESTEVE PHARMACEUTICALS, S.A., priority 2017, dated 2022).

Molecular target: Human α2δ-1 subunit of Cav2.2 calcium channel (Homo sapiens (Human), UniProt P54289)
Test: Binding Assay to Human α2δ-1 Subunit of Cav2.2 Calcium Channel
Conditions: Table 1; human α2δ-1 enriched membranes, 15 nM [3H]-Gabapentin; read-out: Ki(nM) alpha2delta Hum
Description: Binding Assay to Human α2δ-1 Subunit of Cav2.2 Calcium Channel.
NSB (non specific binding) was measured by adding 10 μM pregabalin. The binding of the test compound was measured in five different concentrations. After 60 min incubation at 27° C., binding reaction was terminated by filtering through Multiscreen GF/C (Millipore) presoaked in 0.5% polyethyleneimine in Vacuum Manifold Station, followed by 3 washes with ice-cold filtration buffer containing 50 mM Tris-HCl, pH 7.4.
Filter plates were dried at 60° C. for 1 hour and 30 μl of scintillation cocktail were added to each well before radioactivity reading.

Chain of Human α2δ-1 subunit of Cav2.2 calcium channel (P54289 25-1103): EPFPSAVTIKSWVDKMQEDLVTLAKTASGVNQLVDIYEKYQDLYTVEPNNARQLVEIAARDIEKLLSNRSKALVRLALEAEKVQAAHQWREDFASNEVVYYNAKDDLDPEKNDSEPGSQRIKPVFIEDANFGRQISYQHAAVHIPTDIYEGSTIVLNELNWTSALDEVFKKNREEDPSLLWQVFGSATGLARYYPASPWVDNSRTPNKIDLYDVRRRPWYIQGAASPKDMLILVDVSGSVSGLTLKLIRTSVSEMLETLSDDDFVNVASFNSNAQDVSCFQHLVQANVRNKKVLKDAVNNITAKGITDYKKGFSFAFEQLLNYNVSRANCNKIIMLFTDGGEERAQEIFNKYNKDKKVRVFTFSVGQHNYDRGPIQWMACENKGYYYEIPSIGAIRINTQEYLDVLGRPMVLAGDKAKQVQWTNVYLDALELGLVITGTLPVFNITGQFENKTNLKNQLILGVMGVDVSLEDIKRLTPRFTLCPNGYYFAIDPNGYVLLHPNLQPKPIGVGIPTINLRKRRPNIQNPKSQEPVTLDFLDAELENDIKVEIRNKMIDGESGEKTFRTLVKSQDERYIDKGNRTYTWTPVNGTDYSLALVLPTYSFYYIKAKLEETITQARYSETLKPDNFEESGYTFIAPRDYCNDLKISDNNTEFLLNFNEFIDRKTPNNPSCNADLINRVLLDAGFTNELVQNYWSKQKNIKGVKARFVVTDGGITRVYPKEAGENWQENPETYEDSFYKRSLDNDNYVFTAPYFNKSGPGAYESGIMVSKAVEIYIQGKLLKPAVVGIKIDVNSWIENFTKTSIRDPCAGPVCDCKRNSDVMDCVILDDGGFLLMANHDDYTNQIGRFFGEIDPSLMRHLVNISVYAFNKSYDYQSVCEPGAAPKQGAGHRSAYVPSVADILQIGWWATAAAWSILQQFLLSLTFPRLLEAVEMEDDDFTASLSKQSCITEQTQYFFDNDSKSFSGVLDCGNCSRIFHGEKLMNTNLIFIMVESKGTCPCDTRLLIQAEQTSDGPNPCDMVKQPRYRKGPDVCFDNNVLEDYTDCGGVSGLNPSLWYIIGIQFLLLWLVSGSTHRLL

Row | SMILES | Ki
1 | CNCCC(OCc1cccc(N2CCCCCC2=O)c1)c1cccs1 (centres unmarked) [Example 16, 1-(3-((3-(Methylamino)-1-(thiophen-2-yl)propoxy)methyl)phenyl)azepan-2-one] | 500 to 3000 nM
2 | CNCC[C@@H](Oc1ccc(CN2CCN(C)c3ncccc3C2=O)c(F)c1)c1cccc(F)c1 [Example 135, (R)-4-(2-fluoro-4-(1-(3-fiuorophenyl)-3-(methylamino)propoxy)benzyl)-1-methyl-1,2,3,4-tetrahydro-5H-pyrido[2,3-e][1,4]diazepin-5-one] | 500 to 3000 nM
3 | CNCC[C@@H](OCc1cccc(N2CCN(C)c3ccccc3C2=O)c1)c1ccccc1 [Example 47, (R)-1-methyl-4-(3-((3-(methylamino)-1-phenylpropoxy)methyl)phenyl)-1,2,3,4-tetrahydro-5H-benzo[e][1,4]diazepin-5-one] | 500 to 3000 nM
4 | CNCCC(Oc1cccc(C(=O)N2CCCN(C)CC2)c1)c1cccs1 (centres unmarked) [Example 2, (4-Methyl-1,4-diazepan-1-yl)(3-(3-(methylamino)-1-(thiophen-2-yl)propoxy)phenyl)methanone] | 500 to 3000 nM
5 | CNCCC(Oc1cccc(N2CCCCCC2=O)c1)c1cccs1 (centres unmarked) [Example 17, 1-(3-(3-(Methylamino)-1-(thiophen-2-yl)propoxy)phenyl)azepan-2-one] | > 3000 nM
6 | CNCC[C@H](Oc1ccc(CN2CCCn3nc(C)cc3C2=O)c(C)c1)c1cccs1 [Example 124, (S)-2-methyl-5-(2-methyl-4-(3-(methylamino)-1-(thiophen-2-yl)propoxy)benzyl)-5,6,7,8-tetrahydro-4H-pyrazolo[1,5-a][1,4]diazepin-4-one] | < 100 nM
7 | CNCCC(Oc1cccc(N2CCN(C)c3cccnc3C2=O)c1)c1cccs1 (centres unmarked) [Example 57, 1-Methyl-4-(3-(3-(methylamino)-1-(thiophen-2-yl)propoxy)phenyl)-1,2,3,4-tetrahydro-5H-pyrido[3,2-e][1,4]diazepin-5-one] | 500 to 3000 nM
8 | CNCC[C@H](Oc1ccc(CN2CCN(C)c3ncccc3C2=O)c(C)c1)c1cccs1 [Example 107, (S)-1-methyl-4-(2-methyl-4-(3-(methylamino)-1-(thiophen-2-yl)propoxy)benzyl)-1,2,3,4-tetrahydro-5H-pyrido[2,3-e][1,4]diazepin-5-one] | < 100 nM
9 | CNCC[C@H](Oc1ccc(CN2CCN(C)c3ncccc3C2=O)c(C(F)(F)F)c1)c1cccs1 [Example 127, (S)-1-methyl-4-(4-(3-(methylamino)-1-(thiophen-2-yl)propoxy)-2-(trifluoromethyl)benzyl)-1,2,3,4-tetrahydro-5H-pyrido[2,3-e][1,4]diazepin-5-one] | < 100 nM
10 | CCNC[C@H]1CN(C)CCN(c2cccc(O[C@@H](CCNC)c3ccccc3)c2)C1=O [Example 24, (S)-6-((ethylamino)methyl)-1-methyl-4-(3-((S)-3-(methylamino)-1-phenylpropoxy)phenyl)-1,4-diazepan-5-one] | > 3000 nM
11 | CNCCC(Oc1cccc(N2CC(=O)N(C)c3ccccc3C2=O)c1)c1cccs1 (centres unmarked) [Example 51, 1-Methyl-4-(3-(3-(methylamino)-1-(thiophen-2-yl)propoxy)phenyl)-3,4-dihydro-1H-benzo[e][1,4]diazepine-2,5-dione] | > 3000 nM
12 | CNCC[C@H](OCc1cccc(N2C[C@@H]3CCCN3c3ccccc3C2=O)c1)c1ccccc1 [Example 30, (S)-5-(3-(((S)-3-(methylamino)-1-phenylpropoxy)methyl)phenyl)-1,2,3,3a,4,5-hexahydro-6H-benzo[f]pyrrolo[1,2-a][1,4]diazepin-6-one] | > 3000 nM
13 | CCNC[C@@H]1CC(=O)N(c2cccc(O[C@@H](CCNC)c3cccs3)c2)CCN1C [Example 87, (S)-7-((ethylamino)methyl)-1-methyl-4-(3-((S)-3-(methylamino)-1-(thiophen-2-yl)propoxy)phenyl)-1,4-diazepan-5-one] | 500 to 3000 nM
14 | CNCCC(Oc1cccc(N2CCN(C)c3cnccc3C2=O)c1)c1cccs1 (centres unmarked) [Example 73, 1-Methyl-4-(3-(3-(methylamino)-1-(thiophen-2-yl)propoxy)phenyl)-1.2,3,4-tetrahydro-5H-pyrido[3,4-e][1,4]diazepin-5-one] | 100 to 500 nM
15 | CNCC[C@H](Oc1ccc(CN2CCCn3cccc3C2=O)cc1)c1cccs1 [Example 105, (S)-2-(4-(3-(methylamino)-1-(thiophen-2-yl)propoxy)benzyl)-2,3,4,5-tetrahydro-1H-pyrrolo[1,2-a][1,4]diazepin-1-one] | 500 to 3000 nM
16 | CNCCC(Oc1ccc(CN2CCCN(C)CC2)cc1)c1cccs1 (centres unmarked) [Example 102, N-methyl-3-(4-((4-methyl-1,4-diazepan-1-yl)methyl)phenoxy)-3-(thiophen-2-yl)propan-1-amine] | > 3000 nM
17 | CCN[C@@H]1CCCCN(c2cccc(O[C@@H](CCNC)c3cccs3)c2)C1=O [Example 18, (R)-3-(ethylamino)-1-(3-((S)-3-(methylamino)-1-(thiophen-2-yl)propoxy)phenyl)azepan-2-one] | 500 to 3000 nM

Row | SMILES | Ki
18 | CNCCC(OCc1ccc(CN2CCN(C)c3ccccc3C2=O)cc1)c1ccccc1 (centres unmarked) [Example 88, 1-Methyl-4-(4-((3-(methylamino)-1-phenylpropoxy)methyl)benzyl)-1,2,3,4-tetrahydro-5H-benzo[e][1,4]diazepin-5-one] | > 3000 nM
19 | CNCCC(OCc1cccc(N2CCN(C)c3cnccc3C2=O)c1)c1ccccc1 (centres unmarked) [Example 28, 1-Methyl-4-(3-((3-(methylamino)-1-phenylpropoxy)methyl)phenyl)-1,2,3,4-tetrahydro-5H-pyrido[3,4-e][1,4]diazepin-5-one] | 500 to 3000 nM
20 | CNCCC(OCc1cccc(N2CCN(C)c3ccccc3C2=O)c1)c1ccccc1 (centres unmarked) [Example 38, 1-Methyl-4-(3-((3-(methylamino)-1-phenylpropoxy)methyl)phenyl)-1,2,3,4-tetrahydro-5H-benzo[e][1,4]diazepin-5-one] | 500 to 3000 nM
21 | CCNc1ccc2c(n1)N(C)CCN(Cc1ccc(O[C@H](CCNC)c3cccc(F)c3)cc1F)C2=O [Example 147, (R)-8-(ethylamino)-4-(2-fluoro-4-(1-(3-fluorophenyl)-3-(methylamino)propoxy)benzyl)-1-methyl-1,2,3,4-tetrahydro-5H-pyrido[2,3-e][1,4]diazepin-5-one] | > 3000 nM
22 | CNCC(OCc1ccc(N2CCN(C)c3ccccc3C2=O)cc1)c1ccccc1 (centres unmarked) [Example 85, 1-Methyl-4-(4-((2-(methylamino)-1-phenylethoxy)methyl)phenyl)-1,2,3.4-tetrahydro-5H-benzo[e][1,4]diazepin-5-one] | > 3000 nM
23 | CNCCC(OCc1cccc(N2CCN(C)c3ccccc3C2=O)c1)c1cccc(F)c1 (centres unmarked) [Example 40, 4-(3-((1-(3-Fluorophenyl)-3-(methylamino)propoxy)methyl)phenyl)-1-methyl-1,2,3,4-tetrahydro-5H-benzo[e][1,4]diazepin-5-one] | 500 to 3000 nM
24 | CCNCC(=O)N1CCC(=O)N(c2cccc(OC(CCNC)c3cccs3)c2)CC1 (centres unmarked) [Example 68, 1-(Ethylglycyl)-4-(3-(3-(methylamino)-1-(thiophen-2-yl)propoxy)phenyl)-1,4-diazepan-5-one] | 500 to 3000 nM
25 | CNCCC(Oc1cccc(N2CCCN(C)CC2=O)c1)c1cccs1 (centres unmarked) [Example 52, 4-Methyl-1-(3-(3-(methylamino)-1-(thiophen-2-yl)procoxy)phenyl)-1,4-diazepan-2-one] | > 3000 nM
26 | CCN[C@H]1CCCCN(c2cccc(O[C@@H](CCNC)c3cccs3)c2)C1=O [Example 19, (S)-3-(ethylamino)-1-(3-((S)-3-(methylamino)-1-(thiophen-2-yl)propoxy)phenyl)azepan-2-one] | 500 to 3000 nM
27 | CCNC[C@@H]1CC(=O)N(c2cccc(O[C@@H](CCNC)c3ccccc3)c2)CCN1C [Example 23, (S)-7-((ethylamino)methyl)-1-methyl-4-(3-((S)-3-(methylamino)-1-phenylpropoxy)phenyl)-1,4-diazepan-5-one] | > 3000 nM
28 | CNCC[C@H](OCc1cccc(N2CCCN(C)CC2)c1)c1ccccc1 [Example 12, (S)-N-methyl-3-((3-(4-methyl-1,4-diazepan-1-yl)benzyl)oxy)-3-phenylpropan-1-amine] | > 3000 nM
29 | CNCCC(OCc1cccc(N2CCN(C)c3cccnc3C2=O)c1)c1ccccc1 (centres unmarked) [Example 26, 1-Methyl-4-(3-((3-(methylamino)-1-phenylpropoxy)methyl)phenyl)-1,2,3,4-tetrahydro-5H-pyrido[3,2-e][1,4]diazepin-5-one] | 500 to 3000 nM
30 | CNCCC(OCc1cccc(N2CCCCCC2=O)c1)c1ccccc1 (centres unmarked) [Example 35, 1-(3-((3-(Methylamino)-1-phenylpropoxy)methyl)phenyl)azepan-2-one] | 500 to 3000 nM
31 | CNCCC(OCc1ccc(N2CCN(C)c3ccccc3C2=O)cc1)c1ccccc1 (centres unmarked) [Example 46, 1-Methyl-4-(4-((3-(methylamino)-1-phenylpropoxy)methyl)phenyl)-1,2,3,4-tetrahydro-5H-benzo[e][1,4]diazepin-5-one] | > 3000 nM
32 | CN1CCN(c2cccc(COC(CCNCCF)c3ccccc3)c2)C(=O)c2ccccc21 (centres unmarked) [Example 44, 4-(3-((3-((2-Fluoroethyl)amino)-1-phenylpropoxy)methyl)phenyl)-1-methyl-1,2,3,4-tetrahydro-5H-benzo[e][1,4]diazepin-5-one] | 500 to 3000 nM
33 | CNCCC(Oc1cccc(C(=O)N2CCN(C)c3ccccc3C2)c1)c1cccs1 (centres unmarked) [Example 4, (1-Methyl-1,2,3,5-tetrahydro-4H-benzo[e][1,4]diazepin-4-yl)(3-(3-(methylamino)-1-(thiophen-2-yl)propoxy)phenyl)methanone] | 500 to 3000 nM
34 | CNCC[C@H](Oc1ccc(CN2CCN(C)c3ncccc3C2=O)c(C2CC2)c1)c1cccs1 [Example 128, (S)-4-(2-cyclopropyl-4-(3-(methylamino)-1-(thiophen-2-yl)propoxy)benzyl)-1-methyl-1,2,3,4-tetrahydro-5H-pyrido[2,3-e][1,4]diazepin-5-one] | 100 to 500 nM

Same assay, conditions: Table 2, dual compounds; human α2δ-1 enriched membranes, 15 nM [3H]-Gabapentin; read-out: Ki(nM) alpha2delta Hum

Row | SMILES | Ki
35 | CNCC[C@H](Oc1ccc(CN2CCCn3cccc3C2=O)cc1)c1cccs1 [Example 105, (S)-2-(4-(3-(methylamino)-1-(thiophen-2-yl)propoxy)benzyl)-2,3,4,5-tetrahydro-1H-pyrrolo[1,2-a][1,4]diazepin-1-one] | 500 to 3000 nM
